{"source": "patent US20220280507A1", "about": "“USES OF 5-METHYLTETRAHYDROFOLATE AND ITS COMPOSITION” (Lianyungang Jinkang Hexin Pharmaceutical Co., Ltd., priority 2019, published 2022)", "key": {"[1]": {"tested_on": "IL-1β", "assay": "LPS-induced inflammatory response in astrocytes, IL-1β release (ELISA)", "assay_type": "cell-based, Kunming mice", "conditions": "culture supernatant, LPS 1 μg·ml-1 + substance 10 μg·ml-1, 24 h, n=6", "excerpt": "(§1) Experiment 9 Inhibition of 5-Methyltetrahydrofolate and Curcumin on LPS-Induced Inflammatory Response in Astrocytes\n(§2) The cerebral cortex of Kunming mice at 1˜2 d was taken out under aseptic conditions, washed 3 times with cold PBS after removing residual meninges and blood vessels, prepared into single cell suspension by blowing, centrifuged, the supernatant was discarded, and the precipitant was resuspended in AST basic medium (high-sugar DMEM containing 10% FBS). The suspension was inoculated into a culture flask coated with poly-L-lysine (0.1 mg/ml), and cultured in a CO2 incubator. After 24 h, tissue debris and non-adherent cells were removed by replacing the medium. Afterwards, the medium was replaced every 3 days until the cells reached 80% confluence, then the flask was placed on a constant temperature rotary shaker, where the suspension was centrifuged at 180 r/min, 37° C. for 18 h to remove oligodendrocytes and microglia from the upper layer. Then trypsin digestion was used for subculture. […]\n(§3) LPS (1 μg·ml-1), LPS (1 μg·ml-1)+curcumin (10 μg·ml-1), LPS (1 μg·ml-1)+5-MTHF-Ca (10 μg·ml-1); experimental group: LPS (1 μg·ml-1)+curcumin (5 μg·ml-1)+5-MTHF-Ca (5 μg·ml-1). After 24 h, the culture supernatant was collected, and the cytokines IL-6, IL-1β and TNF-α were detected by ELISA."}, "[2]": {"tested_on": "IL-6", "assay": "LPS-induced inflammatory response in astrocytes, IL-6 release (ELISA)", "assay_type": "cell-based, Kunming mice", "conditions": "culture supernatant, LPS 1 μg·ml-1 + substance 10 μg·ml-1, 24 h, n=6", "excerpt": "as §1, §2, §3"}, "[3]": {"tested_on": "TNF-α", "assay": "LPS-induced inflammatory response in astrocytes, TNF-α release (ELISA)", "assay_type": "cell-based, Kunming mice", "conditions": "culture supernatant, LPS 1 μg·ml-1 + substance 10 μg·ml-1, 24 h, n=6", "excerpt": "as §1, §2, §3"}, "[4]": {"tested_on": "hyperlipemia rats", "assay": "Hyperlipemia rats (high-fat diet), biochemical indexes TG, TC, SOD, MDA", "assay_type": "in vivo, SD rats", "conditions": "50 mg·kg−1·d−1, 60 d", "protocol": "(§4) Experiment 5 Effect of 5-Methyltetrahydrofolate Calcium on Hyperlipemia Rats\n(§5) 7 weeks later, one rat in the control group and one rat in the model group were sacrificed for liver tissue section to check fatty degeneration of hepatocytes (see Table 7) to confirm whether modeling was successful. The remaining 40 modeling rats were randomly divided into low-dose (1 mg·Kg−1) group, medium-dose (2 mg·Kg−1) group, high-dose (4 mg·Kg−1) group, positive drug group, and model group.\n(§6) Bicyclol (place of origin: Beijing Xiehe Pharmaceutical Factory, specification: 25 mg/tablet, batch number: H20040467) was used as a positive drug.\n(§7) After successful modeling, rats were administered drugs with dosages as prescribed for 60 consecutive days, continued to be fed with high-fat diet, and dissected on the 61st day. Liver was harvested and weighed, liver index was calculated, right lobe tissue was taken to prepare frozen sections, and fat staining was performed with Sudan III for pathological scoring according to guidelines for diagnosis and treatment of NAFLD. Another liver tissue was taken to prepare homogenate, and total cholesterol (TC), triglyceride (TG), malondialdehyde (MDA), and superoxide dismutase (SOD) in serum were detected."}, "[5]": {"assay": "Alcoholic fatty liver model, body weight during administration period", "assay_type": "in vivo, SD rats", "conditions": "liquor model, 50 mg·kg−1·d−1 ig", "protocol": "(§8) According to their weight, they were randomly divided into vehicle control group (purified water, ig), model control group (liquor, 10 ml·Kg−1), positive control group (bicyclol, 50 mg·Kg−1, ig), folic acid calcium salt high-dose group (4 mg·Kg−1), folic acid calcium salt medium-dose group (2 mg·Kg−1), folic acid calcium salt low-dose group (1 mg·Kg−1), in half female and half male, and 16 rats in each group. Purified water was used as a negative control, and bicyclol (place of origin: Beijing Xiehe Pharmaceutical Factory, specification: 25 mg/tablet, batch number: H20040467) was used as a positive control drug. Route of administration: all were administered by oral gavage. Dosage of administration: 1 mg·Kg−1, 2 mg·Kg−1, and 4 mg·Kg−1. Frequency of administration: once a day for 60 consecutive days.\n(§9) Method of administration: administration started at prescribed doses on the day of modeling for 60 consecutive days and ended at the 60th day. At the same time, rats in each group were weighed every other week during administration period to monitor their body weight changes. On the 61st day, rats were dissected and serum was collected for determination of triglyceride (TG), total cholesterol (TC), malondialdehyde (MDA), superoxide dismutase (SOD) and liver histopathologic examination. The brain tissue of rats was taken out, and hippocampus tissue was separated on ice plate, prepared to homogenate with a mass fraction of 10% with purified water, then the homogenate was centrifuged to obtain supernatant. ELISA was used to detect the levels of inflammatory factors TNF-α and IL-1β in hippocampus tissue with continuous spectrum scanning microplate reader."}, "[6]": {"tested_on": "TNF-α", "assay": "Alcoholic fatty liver model, TNF-α in hippocampus tissue (ELISA)", "assay_type": "in vivo, SD rats", "conditions": "liquor model, 50 mg·kg−1·d−1 ig 60 d, n=16", "protocol": "as §8, §9"}, "[7]": {"tested_on": "hyperlipemia rats", "assay": "Hyperlipemia rats (high-fat diet), body mass, liver mass, liver index, NASH pathology", "assay_type": "in vivo, SD rats", "conditions": "positive drug group, 60 d", "protocol": "as §4, §5, §6, §7"}, "[8]": {"tested_on": "alcoholic liver damage and fatty liver", "assay": "Alcoholic fatty liver model, serum TG, TC, SOD, MDA and liver histopathology", "assay_type": "in vivo, SD rats", "protocol": "as §8, with “96 SPF-grade SD rats were chosen in half female and half male with an average weight of 176-220 g at the beginning of the experiment. According” for “According”, “days. Erguotou (batch number: 201603092, specification: 2L, place of origin: Beijing Shunxin Agriculture Co., Ltd.) model establishing method: gavage with diluted 56-degree Erguotou twice a day for 60 consecutive days.” for “days.”\nas §9"}, "[9]": {"tested_on": "IL-1β", "assay": "Alcoholic fatty liver model, IL-1β in hippocampus tissue (ELISA)", "assay_type": "in vivo, SD rats", "conditions": "liquor model, 50 mg·kg−1·d−1 ig 60 d, n=16", "protocol": "as §8, §9"}, "[10]": {"conditions": "day 61, liquor model, 50 mg·kg−1·d−1 ig 60 d, n=16"}, "[11]": {"conditions": "serum day 61, liquor model, 50 mg·kg−1·d−1 ig 60 d, n=16"}}}
{"smiles": "COc1cc(/C=C/C(=O)CC(=O)/C=C/c2ccc(O)c(OC)c2)ccc1O", "note": "[Cur, curcumin, reference compound]", "values": [{"measurement": "IL-1β", "setting": "[1]", "result": "742.12 ± 10.33", "unit": "pg/mL"}, {"measurement": "IL-6", "setting": "[2]", "result": "1003.97 ± 60.33", "unit": "pg/mL"}, {"measurement": "TNF-α", "setting": "[3]", "result": "492.32 ± 8.92", "unit": "pg/mL"}]}
{"smiles": "COC(=O)c1cc(OC)c2c(c1-c1c(CO)cc(OC)c3c1OCO3)OCO2", "note": "[bicyclol, reference compound]", "values": [{"measurement": "MDA", "setting": "[4]", "result": "72.39 ± 19.23", "unit": "nmol/mgprot"}, {"measurement": "SOD", "setting": "[4]", "result": "157.41 ± 16.45^ U/mgprot"}, {"measurement": "TC", "setting": "[4]", "result": "1.45 ± 0.63", "unit": "mmol/L"}, {"measurement": "TG", "setting": "[4]", "result": "1.23 ± 0.35", "unit": "mmol/L"}, {"measurement": "Body weight", "setting": "[5]; Week 0, n=16", "result": 188.19, "unit": "g"}, {"measurement": "Body weight", "setting": "[5]; Week 1, n=16", "result": 211.95, "unit": "g"}, {"measurement": "Body weight", "setting": "[5]; Week 2, n=16", "result": 279.31, "unit": "g"}, {"measurement": "Body weight", "setting": "[5]; Week 3, n=16", "result": 292.58, "unit": "g"}, {"measurement": "Body weight", "setting": "[5]; Week 4, n=16", "result": 317.80, "unit": "g"}, {"measurement": "Body weight", "setting": "[5]; Week 5, n=16", "result": 313.19, "unit": "g"}, {"measurement": "Body weight", "setting": "[5]; Week 6, n=16", "result": 333.57, "unit": "g"}, {"measurement": "Body weight", "setting": "[5]; Week 7, n=16", "result": 360.01, "unit": "g"}, {"measurement": "Body weight", "setting": "[5]; Week 8, n=16", "result": 380.37, "unit": "g"}, {"measurement": "TNF-α in hippocampus tissue", "setting": "[6]", "result": "286.32 ± 43.79.* μg · g^−1 prot"}, {"measurement": "Body mass", "setting": "[7]; 8 cases", "result": "453.8 ± 34.7", "unit": "g"}, {"measurement": "Liver index", "setting": "[7]; 8 cases", "result": "3.2 ± 0.4"}, {"measurement": "Liver mass", "setting": "[7]; 8 cases", "result": "14.6 ± 4.5", "unit": "g"}, {"measurement": "Pathological state (NASH)", "setting": "[7]; of 8 cases", "result": 2, "unit": "cases"}, {"measurement": "MDA", "setting": "[8]; [10]", "result": "70.41 ± 20.33", "unit": "nmol/mgprot"}, {"measurement": "SOD", "setting": "[8]; [10]", "result": "167.47 ± 18.91^ U/mgprot"}, {"measurement": "Pathological examination of liver", "setting": "[8]; liquor model, positive drug group 50 mg·Kg−1 ig 60 d", "result": "no hyperplasia of interstitial connective tissue and fatty degeneration of hepatocytes"}, {"measurement": "TC", "setting": "[8]; [11]", "result": "1.45 ± 0.43", "unit": "mmol/L"}, {"measurement": "TG", "setting": "[8]; [11]", "result": "1.03 ± 0.34", "unit": "mmol/L"}, {"measurement": "IL-1β in hippocampus tissue", "setting": "[9]", "result": "73.93 ± 9.37", "unit": "μg · g^−1 prot"}]}
